Laboratory results published in BindingDB's records for doi:10.1021/ja0446404 (Yale University, 2005).

Biological target: Bcl-2-like protein 1 (Homo sapiens, UniProt Q07817)
Experiment: Fluorescence Polarization Assay
Procedure: Fluorescence polarization experiments were conducted on a Photon Technology International instrument using a 0.3 cm path length cuvette. Spectra were measured at 25 deg C using 10.0 nm slit widths. Excitation at 495 nm was used for the fluorescein-containing peptide Fl-Bak and the emission maximum at 535 nm was monitored. Polarization measurements were recorded upon titration of inhibitors at varying concentrations into a solution of Fl-Bak and Bcl-xL.

Sequence of Bcl-2-like protein 1 (Q07817 whole entry): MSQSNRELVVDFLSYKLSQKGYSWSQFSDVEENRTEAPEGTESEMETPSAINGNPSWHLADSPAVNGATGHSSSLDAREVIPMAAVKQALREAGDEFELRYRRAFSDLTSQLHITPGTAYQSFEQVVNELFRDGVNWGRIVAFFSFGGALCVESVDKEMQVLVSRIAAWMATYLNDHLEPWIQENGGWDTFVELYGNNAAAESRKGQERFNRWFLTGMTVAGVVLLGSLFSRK

| Ki (pH 7.4, 25 °C) [µM] | SMILES | Ki [µM] |
| --- | --- | --- |
| 10.9 | COC(=O)[C@H](Cc1ccccc1)NC(=O)c1ccc(C(=O)N(C(C)C)C(C)C)cc1OC(C)C [terephthalamide scaffold, 25] | – |
| 2.31 | COc1cc(C(=O)N(C(C)C)C(C)C)ccc1C(=O)N[C@@H](CC(C)C)C(=O)O [terephthalamide scaffold, 28] | – |
| 7.63 | CC(C)C[C@H](NC(=O)c1ccc(C(=O)N(C(C)C)C(C)C)cc1Oc1ccc2ccccc2c1)C(=O)O [terephthalamide scaffold, 31] | – |
| 13.2 | COC(=O)[C@H](CC(C)C)NC(=O)c1ccc(C(=O)N(C(C)C)C(C)C)cc1Oc1ccc([N+](=O)[O-])cc1 [terephthalamide scaffold, 32] | – |
| 3.14 | COC(=O)[C@H](CC(C)C)NC(=O)c1ccc(C(=O)N(C)C)cc1OC(C)C [terephthalamide scaffold, 34] | – |
| – | CC(C)C[C@H](NC(=O)c1ccc(C(=O)N(CC(C)C)[C@H](C(=O)O)C(C)C)cc1OC(C)C)C(=O)O [terephthalamide scaffold, 47] | 450 |
| – | CC(C)C[C@H](NC(=O)c1ccc(C(=O)N[C@@H](CC(C)C)C(=O)O)c(Oc2ccc3ccccc3c2)c1)C(=O)O [terephthalamide scaffold, 50] | 82.1 |
